Measured values reported in ChEMBL document CHEMBL1122856, “Study on the inhibition of adenosine deaminase” (J Med Chem, 1985).
pKi: −log10 of the molar value.

Molecular target: T1, Adenosine deaminase (Bos taurus, UniProt P56658)
T1 sequence (P56658 whole entry): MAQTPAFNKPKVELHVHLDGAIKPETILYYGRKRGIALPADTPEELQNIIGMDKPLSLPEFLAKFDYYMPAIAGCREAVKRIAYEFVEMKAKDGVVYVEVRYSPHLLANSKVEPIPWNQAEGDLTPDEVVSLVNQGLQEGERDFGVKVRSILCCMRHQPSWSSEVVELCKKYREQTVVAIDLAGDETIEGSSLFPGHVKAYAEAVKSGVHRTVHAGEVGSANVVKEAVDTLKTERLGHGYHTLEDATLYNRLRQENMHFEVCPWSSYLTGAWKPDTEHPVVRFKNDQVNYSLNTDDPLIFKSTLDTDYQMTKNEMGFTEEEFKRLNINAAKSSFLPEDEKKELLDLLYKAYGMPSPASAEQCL
Assay: Ability to inhibit the deamination of adenosine by calf intestine adenosine deaminase

pKi: 4.21
SMILES: Cc1c([C@@H](C)O)ncn1C1O[C@H](CO)[C@@H](O)[C@H]1O (stereo partly specified)
